In paper PMC9862759 (Viruses, 2023):
Several values for one entry are separate records, joined by “and”; a condition that tells them apart may be missing. Identical values can stand only once. Like-named read-outs stand apart in the source and are kept apart here.

Tests used:
HEK-293T-ACE2^h cells = experiment: MTT cytotoxicity assay on host cells (4 h); assay type: cell-based, human; conditions: MTT, 4 h
Beas-2B cells = experiment: MTT cytotoxicity on human normal cell line Beas-2B (24 h); assay type: cell-based; conditions: Homo sapiens, BEAS-2B, 24 h, read-out: IC50 Values of Human Normal Cell Lines, Beas-2B
LO2 cells = experiment: MTT cytotoxicity on human normal cell line LO2 (24 h); assay type: cell-based; conditions: Homo sapiens, L02, 24 h, read-out: IC50 Values of Human Normal Cell Lines, LO2
HEK 293 cells = experiment: MTT cytotoxicity on human normal cell line HEK 293 (24 h); assay type: cell-based; conditions: Homo sapiens, HEK293, 24 h, read-out: IC50 Values of Human Normal Cell Lines, HEK 293
SARS-CoV-2 pseudovirus [1] = conditions: for IC50: read-out: IC50 (inhibition of pseudovirus entry into host cells)
SARS-CoV-2 pseudovirus [2] = experiment: microbe, parasite or virus in culture; conditions: Severe acute respiratory syndrome-related coronavirus, read-out: IC50 (inhibition of pseudovirus entry into host cells)

SMILES	CC0 (maximum nontoxic concentration) (HEK-293T-ACE2^h cells) [µM]	TC50 (concentration reducing cell viability by 50%) (HEK-293T-ACE2^h cells)	IC50 (Beas-2B cells) [µM]	IC50 (LO2 cells) [µM]	IC50 (HEK 293 cells) [µM]	SI (ratio of TC50 to IC50) (SARS-CoV-2 pseudovirus [1])	IC50 (SARS-CoV-2 pseudovirus [2]) [µM]	IC50 (SARS-CoV-2 pseudovirus [1]) [µM]
Oc1cc(O)c2c(c1)OC(c1ccc(O)c(O)c1)C(O)C2 (racemic) [compound 21, (±)-Catechin]	300	>500 µM	> 500	> 500	> 500	>3.19	157 ± 12	
COc1ccc2cc1Oc1ccc(cc1)C[C@H]1c3c(cc4c(c3Oc3cc5c(cc3OC)CCN(C)[C@@H]5C2)OCO4)CCN1C [Cepharanthine, reference compound]	6.25	11.54 µM and 11.54 ± 1.39 µM	26.1 ± 1.08	16.06 ± 0.13	24.3 ± 0.22	8.88	1.3 ± 0.18	
O=c1cc(-c2ccccc2)oc2cc(O)cc(O)c12 [compound 1, Chrysin]	100	168.50 ± 12.06 µM				<1.69	> 100	
O=c1cc(-c2ccc(O)cc2)oc2cc(O)cc(O)c12 [compound 2, Apigenin]	50	90.88 ± 3.13 µM				<1.82	> 50	
O=c1cc(-c2ccc(O)c(O)c2)oc2cc(O)cc(O)c12 [compound 3, Luteolin]	200	>300 µM	> 300	183 ± 10.3	> 300			
O=c1cc(-c2ccc(O)cc2)oc2c([C@@H]3O[C@H](CO)[C@@H](O)[C@H](O)[C@H]3O)c(O)cc(O)c12 [compound 4, Vitexin]	300	>500 µM					> 300	
O=c1cc(-c2ccc(O)c(O)c2)oc2c([C@@H]3O[C@H](CO)[C@@H](O)[C@H](O)[C@H]3O)c(O)cc(O)c12 [compound 5, Orientin]	300	>500 µM	> 500	> 500	> 500	>7.85	63.7 ± 9.61	
CC1OC(OC2C(c3c(O)cc(O)c4c(=O)cc(-c5ccc(O)cc5)oc34)OC(CO)C(O)C2O)C(O)C(O)C1O (centres unmarked) [compound 6, Vitexin-2″-O-rhamnoside]	300	>500 µM					> 300	
O=c1cc(-c2ccccc2)oc2cc(O)c(O)c(O)c12 [compound 7, Baicalein]	200	>500 µM	494 ± 9.64	> 500	> 500	>9.80	51 ± 6.48	
COc1c(O)cc2oc(-c3ccccc3)cc(=O)c2c1O [compound 8, Oroxylin A]	100	>300 µM	> 300	> 300	> 300	>8.08	< 50	37.1 ± 2.58
O=c1cc(-c2ccc(O)cc2)oc2cc(O)c(O)c(O)c12 [compound 9, Scutellarein]	200	>300 µM	> 300	> 300	> 300	>10.25	< 50	29.3 ± 0.74
O=c1cc(-c2ccccc2)oc2cc(O[C@@H]3O[C@H](CO)[C@@H](O)[C@H](O)[C@H]3O)c(O)c(O)c12 [compound 10, Oroxin A]	300	>300 µM	> 300	> 300	258 ± 10.6	>3.55	84.6 ± 10.8	
O=c1cc(-c2ccccc2)oc2cc(O[C@@H]3O[C@H](CO[C@@H]4O[C@H](CO)[C@@H](O)[C@H](O)[C@H]4O)[C@@H](O)[C@H](O)[C@H]3O)c(O)c(O)c12 [compound 11, Oroxin B]	300	>300 µM	> 300	> 300	> 300	>2.33	129 ± 19	
O=C(O)[C@H]1O[C@@H](Oc2cc3oc(-c4ccccc4)cc(=O)c3c(O)c2O)[C@H](O)[C@@H](O)[C@@H]1O [compound 12, Baicalin]	300	>500 µM	> 500	> 500	> 500	>4.56	110 ± 11	
COc1c(O[C@@H]2O[C@H](C(=O)O)[C@@H](O)[C@H](O)[C@H]2O)cc(O)c2c(=O)cc(-c3ccccc3)oc12 [compound 13, Wogonoside]	300	>500 µM	> 500	> 500	> 500	>4.20	119 ± 21	
O=c1c(O[C@@H]2O[C@H](CO)[C@@H](O)[C@H](O)[C@H]2O)c(-c2ccc(O)cc2)oc2cc(O)cc(O)c12 [compound 17, Astragalin]	300	>500 µM	> 500	> 500	> 500	>3.76	133 ± 16.2	
O=c1c(O[C@@H]2O[C@H](CO)[C@@H](O)[C@H](O)[C@H]2O)c(-c2ccc(O)c(O)c2)oc2cc(O)cc(O)c12 [compound 18, Isoquercitrin]	300	>500 µM	> 500	> 500	> 500	>5.30	94.4 ± 1.59	
O=c1c(O[C@@H]2O[C@H](CO)[C@H](O)[C@H](O)[C@H]2O)c(-c2ccc(O)c(O)c2)oc2cc(O)cc(O)c12 [compound 19, Hyperoside]	300	>500 µM	> 500	> 500	> 500	>6.02	83.1 ± 10.7	
C[C@@H]1O[C@@H](OC[C@H]2O[C@@H](Oc3c(-c4ccc(O)c(O)c4)oc4cc(O)cc(O)c4c3=O)[C@H](O)[C@@H](O)[C@@H]2O)[C@H](O)[C@H](O)[C@H]1O [compound 20, Rutin]	300	>500 µM	> 500	> 500	> 500	>3.40	147 ± 21.1	
Oc1cc(O)c2c(c1)O[C@H](c1ccc(O)c(O)c1)[C@H](O)[C@H]2c1c(O)cc(O)c2c1O[C@H](c1ccc(O)c(O)c1)[C@@H](O)C2 [compound 27, Procyanidin B-1]	300	>500 µM					> 300	
Oc1cc(O)c2c(c1)O[C@H](c1ccc(O)c(O)c1)[C@H](O)[C@H]2c1c(O)cc(O)c2c1O[C@H](c1ccc(O)c(O)c1)[C@H](O)C2 [compound 28, Procyanidin B-2]	300	>500 µM					> 300	
Oc1cc(O)c2c(c1)O[C@H](c1ccc(O)c(O)c1)[C@@H](O)[C@@H]2c1c(O)cc(O)c2c1O[C@H](c1ccc(O)c(O)c1)[C@@H](O)C2 [compound 29, Procyanidin B-3]	300	>500 µM					> 300	
